Assay results from ChEMBL document CHEMBL3621135 (ACS Med Chem Lett, 2015).

Key:
[1] = molecular target: Tyrosine-protein kinase JAK2 (Homo sapiens, UniProt O60674); assay: Inhibition of recombinant JAK2 (unknown origin) using 5-FAM-KKKKEEIYFFFG-OH substrate and ATP incubated for 180 mins by […] method
[2] = molecular target: Tyrosine-protein kinase JAK1 (Homo sapiens, UniProt P23458); assay: Inhibition of recombinant JAK1 (unknown origin) using 5-FAM-KKKKEEIYFFFG-OH substrate and ATP incubated for 180 mins by […] method
Sequence of Tyrosine-protein kinase JAK1 (P23458 whole entry): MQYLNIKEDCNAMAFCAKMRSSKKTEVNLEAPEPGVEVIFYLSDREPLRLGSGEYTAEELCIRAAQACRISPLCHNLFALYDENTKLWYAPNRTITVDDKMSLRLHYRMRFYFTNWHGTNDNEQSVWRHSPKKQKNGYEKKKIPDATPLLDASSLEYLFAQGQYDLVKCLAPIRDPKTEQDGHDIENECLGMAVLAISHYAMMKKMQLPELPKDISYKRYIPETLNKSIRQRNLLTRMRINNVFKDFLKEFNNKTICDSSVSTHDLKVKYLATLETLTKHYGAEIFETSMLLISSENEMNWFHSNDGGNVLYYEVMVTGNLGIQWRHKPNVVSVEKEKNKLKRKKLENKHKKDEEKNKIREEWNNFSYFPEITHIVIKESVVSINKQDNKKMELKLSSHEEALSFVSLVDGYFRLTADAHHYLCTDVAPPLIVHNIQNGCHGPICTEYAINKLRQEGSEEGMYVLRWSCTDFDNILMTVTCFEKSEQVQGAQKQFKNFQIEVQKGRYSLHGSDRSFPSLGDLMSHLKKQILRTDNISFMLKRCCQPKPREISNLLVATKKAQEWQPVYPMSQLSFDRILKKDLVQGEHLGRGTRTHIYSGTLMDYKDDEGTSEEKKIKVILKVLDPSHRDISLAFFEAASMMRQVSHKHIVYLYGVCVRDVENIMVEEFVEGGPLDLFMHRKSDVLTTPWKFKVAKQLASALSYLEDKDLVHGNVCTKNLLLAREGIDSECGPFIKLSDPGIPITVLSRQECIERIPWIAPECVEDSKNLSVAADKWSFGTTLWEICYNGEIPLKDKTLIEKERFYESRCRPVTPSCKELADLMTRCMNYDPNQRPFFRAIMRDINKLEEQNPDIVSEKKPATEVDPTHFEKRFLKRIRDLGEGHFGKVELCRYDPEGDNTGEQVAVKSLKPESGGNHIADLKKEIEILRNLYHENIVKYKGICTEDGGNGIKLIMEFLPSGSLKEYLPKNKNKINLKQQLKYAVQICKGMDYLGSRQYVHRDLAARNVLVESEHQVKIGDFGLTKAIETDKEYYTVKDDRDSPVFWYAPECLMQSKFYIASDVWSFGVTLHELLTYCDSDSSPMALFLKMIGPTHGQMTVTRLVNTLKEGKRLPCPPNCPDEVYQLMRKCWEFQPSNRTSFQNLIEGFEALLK

[3] = molecular target: T1, Tyrosine-protein kinase JAK3 (Homo sapiens, UniProt P52333); assay: Inhibition of recombinant JAK3 (unknown origin) using 5-FAM-KKKKEEIYFFFG-OH substrate and ATP incubated for 180 mins by […] method
T1 sequence (P52333 whole entry): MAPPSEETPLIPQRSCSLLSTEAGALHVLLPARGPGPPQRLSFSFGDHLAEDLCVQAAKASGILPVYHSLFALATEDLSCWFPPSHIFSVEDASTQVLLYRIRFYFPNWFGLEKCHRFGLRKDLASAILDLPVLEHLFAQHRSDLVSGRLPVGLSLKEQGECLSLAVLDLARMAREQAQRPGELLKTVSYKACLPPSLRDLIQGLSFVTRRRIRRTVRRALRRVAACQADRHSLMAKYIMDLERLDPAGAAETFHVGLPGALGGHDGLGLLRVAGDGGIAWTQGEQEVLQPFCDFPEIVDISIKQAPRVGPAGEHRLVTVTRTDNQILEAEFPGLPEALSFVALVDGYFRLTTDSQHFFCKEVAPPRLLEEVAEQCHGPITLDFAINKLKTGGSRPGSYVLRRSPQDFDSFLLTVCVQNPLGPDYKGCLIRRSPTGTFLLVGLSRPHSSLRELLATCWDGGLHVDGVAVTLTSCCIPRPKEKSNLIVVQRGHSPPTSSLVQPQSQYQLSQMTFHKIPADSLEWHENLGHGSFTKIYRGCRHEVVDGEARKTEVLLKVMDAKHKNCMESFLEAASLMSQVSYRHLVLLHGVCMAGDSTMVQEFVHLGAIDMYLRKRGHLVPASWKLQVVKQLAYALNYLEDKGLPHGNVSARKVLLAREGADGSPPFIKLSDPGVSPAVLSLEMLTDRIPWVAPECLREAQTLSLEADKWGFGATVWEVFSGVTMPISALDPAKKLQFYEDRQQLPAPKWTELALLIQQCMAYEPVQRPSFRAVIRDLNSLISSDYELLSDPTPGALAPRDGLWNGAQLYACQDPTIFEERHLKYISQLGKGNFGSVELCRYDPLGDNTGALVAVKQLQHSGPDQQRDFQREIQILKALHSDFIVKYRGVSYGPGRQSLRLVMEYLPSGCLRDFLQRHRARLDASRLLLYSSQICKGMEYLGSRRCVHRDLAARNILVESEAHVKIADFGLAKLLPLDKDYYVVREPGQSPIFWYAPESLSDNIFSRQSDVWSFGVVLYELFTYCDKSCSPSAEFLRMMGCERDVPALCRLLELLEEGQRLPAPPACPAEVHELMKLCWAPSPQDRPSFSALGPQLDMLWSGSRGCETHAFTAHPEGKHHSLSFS

[4] = Antiproliferative activity against human SET2 cells incubated for 72 hrs by [3H] thymidine incorporation assay; format: functional, cell-based; conditions: SET-2
[5] = test system: Liver microsome; assay: Drug metabolism in human liver microsomes assessed as thiourea formation at 10 uM in presence of NADPH by HPLC/UV/MS method; format: ADME
[6] = molecular target: Non-receptor tyrosine-protein kinase TYK2 (Homo sapiens, UniProt P29597); assay: Inhibition of recombinant TYK2 (unknown origin) by scintillation counting method
Sequence of Non-receptor tyrosine-protein kinase TYK2 (P29597 whole entry): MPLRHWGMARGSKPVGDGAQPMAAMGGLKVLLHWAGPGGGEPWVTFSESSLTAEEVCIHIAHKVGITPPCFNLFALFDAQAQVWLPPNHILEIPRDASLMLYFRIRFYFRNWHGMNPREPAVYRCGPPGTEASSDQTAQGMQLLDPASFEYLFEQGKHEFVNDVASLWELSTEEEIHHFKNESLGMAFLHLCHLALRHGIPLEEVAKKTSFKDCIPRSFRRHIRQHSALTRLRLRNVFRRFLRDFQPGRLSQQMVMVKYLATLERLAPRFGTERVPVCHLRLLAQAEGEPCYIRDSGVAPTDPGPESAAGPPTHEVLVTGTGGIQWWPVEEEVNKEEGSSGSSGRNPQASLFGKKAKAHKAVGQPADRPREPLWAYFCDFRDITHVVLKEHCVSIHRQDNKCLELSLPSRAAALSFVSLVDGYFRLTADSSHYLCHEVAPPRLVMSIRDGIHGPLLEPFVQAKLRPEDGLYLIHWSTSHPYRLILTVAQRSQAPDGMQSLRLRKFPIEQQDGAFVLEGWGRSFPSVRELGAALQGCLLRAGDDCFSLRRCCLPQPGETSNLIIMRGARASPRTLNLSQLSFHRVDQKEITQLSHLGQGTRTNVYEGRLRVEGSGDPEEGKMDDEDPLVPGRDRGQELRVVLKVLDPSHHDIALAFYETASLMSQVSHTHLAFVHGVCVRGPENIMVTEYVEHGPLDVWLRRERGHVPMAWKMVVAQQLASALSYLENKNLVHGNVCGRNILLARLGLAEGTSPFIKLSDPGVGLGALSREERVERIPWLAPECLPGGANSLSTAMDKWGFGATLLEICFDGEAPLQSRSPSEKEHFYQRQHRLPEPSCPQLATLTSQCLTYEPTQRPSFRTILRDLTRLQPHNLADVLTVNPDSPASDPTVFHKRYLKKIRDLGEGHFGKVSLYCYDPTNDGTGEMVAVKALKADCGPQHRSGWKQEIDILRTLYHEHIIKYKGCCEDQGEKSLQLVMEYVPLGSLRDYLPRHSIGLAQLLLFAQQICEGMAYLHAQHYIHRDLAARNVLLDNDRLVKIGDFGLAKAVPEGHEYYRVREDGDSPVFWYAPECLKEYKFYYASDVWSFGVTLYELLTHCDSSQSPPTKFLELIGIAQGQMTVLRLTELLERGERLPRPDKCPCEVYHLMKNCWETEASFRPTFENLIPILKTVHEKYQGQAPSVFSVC

[7] = molecular target: hERG (Homo sapiens, UniProt Q12809); assay: Inhibition of human ERG channel at 30 uM
Sequence of hERG (Q12809 whole entry): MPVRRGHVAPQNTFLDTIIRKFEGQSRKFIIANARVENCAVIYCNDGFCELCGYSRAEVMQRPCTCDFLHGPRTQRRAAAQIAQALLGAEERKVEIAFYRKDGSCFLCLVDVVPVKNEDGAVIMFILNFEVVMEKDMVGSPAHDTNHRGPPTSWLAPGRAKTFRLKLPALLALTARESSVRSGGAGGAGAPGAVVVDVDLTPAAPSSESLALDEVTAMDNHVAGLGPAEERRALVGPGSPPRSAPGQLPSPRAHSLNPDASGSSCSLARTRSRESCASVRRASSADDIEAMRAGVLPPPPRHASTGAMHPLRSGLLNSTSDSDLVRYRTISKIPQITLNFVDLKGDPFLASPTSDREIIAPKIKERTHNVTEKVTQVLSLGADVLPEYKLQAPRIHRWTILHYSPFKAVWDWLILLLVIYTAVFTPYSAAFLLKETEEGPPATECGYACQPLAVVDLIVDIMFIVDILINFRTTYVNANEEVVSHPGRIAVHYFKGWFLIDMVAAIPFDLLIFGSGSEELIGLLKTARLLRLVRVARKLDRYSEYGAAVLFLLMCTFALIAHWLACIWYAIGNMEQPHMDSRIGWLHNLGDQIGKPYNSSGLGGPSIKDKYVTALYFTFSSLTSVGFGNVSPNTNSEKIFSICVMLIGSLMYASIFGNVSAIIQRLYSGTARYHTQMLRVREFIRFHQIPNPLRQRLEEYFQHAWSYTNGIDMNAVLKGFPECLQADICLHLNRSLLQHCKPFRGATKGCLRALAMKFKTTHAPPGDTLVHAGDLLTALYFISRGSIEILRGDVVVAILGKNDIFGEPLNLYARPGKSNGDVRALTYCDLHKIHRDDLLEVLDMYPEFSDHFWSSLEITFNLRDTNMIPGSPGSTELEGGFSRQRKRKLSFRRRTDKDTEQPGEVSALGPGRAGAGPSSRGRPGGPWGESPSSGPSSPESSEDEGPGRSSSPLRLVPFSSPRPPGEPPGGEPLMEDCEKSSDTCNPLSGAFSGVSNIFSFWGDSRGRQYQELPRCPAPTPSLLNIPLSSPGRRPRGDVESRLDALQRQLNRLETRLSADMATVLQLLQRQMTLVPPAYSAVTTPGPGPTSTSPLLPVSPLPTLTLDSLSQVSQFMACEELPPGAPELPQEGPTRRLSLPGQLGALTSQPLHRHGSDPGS

Sequence of Tyrosine-protein kinase JAK2 (O60674 whole entry): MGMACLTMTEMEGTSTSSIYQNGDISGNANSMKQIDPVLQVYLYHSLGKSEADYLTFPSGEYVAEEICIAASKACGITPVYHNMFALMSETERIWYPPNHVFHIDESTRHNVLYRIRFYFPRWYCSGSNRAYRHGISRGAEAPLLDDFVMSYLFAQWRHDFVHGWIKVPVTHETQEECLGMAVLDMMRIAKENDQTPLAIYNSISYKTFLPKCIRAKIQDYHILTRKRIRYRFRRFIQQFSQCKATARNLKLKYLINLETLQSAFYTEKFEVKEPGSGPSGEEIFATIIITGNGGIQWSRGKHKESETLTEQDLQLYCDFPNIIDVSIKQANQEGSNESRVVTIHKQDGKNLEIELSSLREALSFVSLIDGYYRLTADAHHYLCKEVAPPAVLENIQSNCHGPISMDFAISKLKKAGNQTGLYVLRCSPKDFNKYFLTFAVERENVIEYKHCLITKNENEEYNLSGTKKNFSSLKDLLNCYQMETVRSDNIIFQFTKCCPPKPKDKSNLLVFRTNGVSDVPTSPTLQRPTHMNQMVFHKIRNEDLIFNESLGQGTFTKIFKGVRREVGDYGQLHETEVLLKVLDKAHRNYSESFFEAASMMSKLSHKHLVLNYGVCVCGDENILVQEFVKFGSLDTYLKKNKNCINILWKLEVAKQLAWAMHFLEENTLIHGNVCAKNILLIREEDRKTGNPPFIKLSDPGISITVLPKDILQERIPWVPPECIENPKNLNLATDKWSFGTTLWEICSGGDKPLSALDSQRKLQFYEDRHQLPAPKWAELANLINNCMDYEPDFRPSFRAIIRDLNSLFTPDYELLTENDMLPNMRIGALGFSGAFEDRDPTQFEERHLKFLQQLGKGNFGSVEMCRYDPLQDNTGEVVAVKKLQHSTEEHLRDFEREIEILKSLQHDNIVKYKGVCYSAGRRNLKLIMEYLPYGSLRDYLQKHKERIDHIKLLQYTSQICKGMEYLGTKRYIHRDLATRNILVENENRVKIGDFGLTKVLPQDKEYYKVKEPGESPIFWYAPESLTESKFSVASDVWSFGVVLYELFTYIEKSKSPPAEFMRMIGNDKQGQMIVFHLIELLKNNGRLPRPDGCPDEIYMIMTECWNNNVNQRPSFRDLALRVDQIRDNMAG

Structure (SMILES)	IC50 [1] [nM]	IC50 [2] [nM]	IC50 [3] [nM]	IC50 [4] [nM]	Drug metabolism [5]	IC50 [6] [nM]	inhibition at 30 µM [7] [%]
CCc1nc(Nc2nc3c(cc(C(=O)N(C4CC4)C4CC4)n3CC)c3c2ncn3C)sc1C	1.4	250	460	92			
CCn1c(C(=O)N(C2CC2)C2CC2)cc2c3c(ncn3C)c(Nc3nc(C)c(C(=O)NC)s3)nc21	0.9	19	19	120	metabolite_detected		
CCn1c(C(=O)N(C2CC2)C2CC2)cc2c3c(ncn3C)c(Nc3nc(C(=O)NC)c(C)s3)nc21	3.1	22	49	100	metabolite_detected		
CCn1c(C(=O)N(C2CC2)C2CC2)cc2c3c(ncn3C)c(Nc3nc(C)c(S(C)(=O)=O)s3)nc21		40	52	51	metabolite_detected		
CCn1c(C(=O)N(C2CC2)C2CC2)cc2c3c(ncn3C)c(Nc3nc(C)c(C(=O)N4CCS(=O)(=O)CC4)s3)nc21	0.7	48	31	330			
CCn1c(C(=O)N(C2CC2)C2CC2)cc2c3c(ncn3C)c(Nc3nc(C)n(C)n3)nc21	33	6000	3800	1300			
CCn1nc(Nc2nc3c(cc(C(=O)N(C4CC4)C4CC4)n3CC)c3c2ncn3C)cc1C		330	210	55		220	75
CCn1c(C(=O)N(C2CC2)C2CC2)cc2c3c(ncn3C)c(Nc3cc(C)nn3C)nc21	230	540	5000	> 2000		2300	
CCn1c(C(=O)N(C2CC2)C2CC2)cc2c3c(ncn3C)c(Nc3cc(C)[nH]n3)nc21	1.2	16	87	53		1.9	
